Consider 20 compounds from US7208500B2, “Thienopyridine-phenylacetamides and their derivatives useful as new anti-angiogenic agents” (Agouron Pharmaceuticals, Inc., priority 2003, dated 2007).

Test [1] concerns the target T1, unphosphorylated VEGF-R2D50 (FLVK), cytosolic domain of human VEGF-R2 (Homo sapiens, UniProt P35968, DEL940-989/E990V).
T1 construct: VEGF-R2D50 contains residues 806–939 and 990–1171; made in house; host or cells: baculovirus/insect cell system
Kind of test: VEGF-R2 coupled spectrophotometric assay (FLVK). In kind it is biochemical. In a few lines:
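Unphosphorylated VEGF-R2D50 (5–40 nM, baculovirus-expressed) was assayed with 3 mM ATP, 20 mM poly(E4Y1), 60 mM MgCl2 and 2 mM MnCl2 in HEPES pH 7.5. ADP formation was coupled via PK/LDH to NADH oxidation and followed at A340. Ki came from activity at varying compound concentrations fitted by the Morrison equation.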

Test [2] concerns the target T2, FGF-R1 intracellular kinase domain (Homo sapiens, UniProt P11362, C488A/C584S/L457V).
T2 construct: starting from the endogenous methionine residue 456 to glutamate 766; made in house; host or cells: baculovirus vector expression system
Kind of test: FGF-R spectrophotometric assay. In kind it is biochemical. To be noted: 50 nM test compound; read-out: FGF-P (% inh @ 50 nM). The procedure, abridged: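 Human FGF-R1 kinase domain (Met456–Glu766, L457V/C488A/C584S) expressed in baculovirus. Spectrophotometric kinase assay run as for VEGF-R2 with 50 nM FGF-R, 2 mM ATP and 15 mM poly(E4Y1).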

Test [3] deals with human umbilical vein endothelial cells (HUVEC). Kind of test: HUVEC + VEGF proliferation assay. In kind it is cell-based. As to conditions: VEGF-stimulated proliferation, final VEGF 6 ng/mL, 72 hours, MTT. As to the method:
This assay determines the ability of a test compound to inhibit the growth factor-stimulated proliferation of human umbilical vein endothelial cells (“HUVEC”). HUVEC cells (passage 3–4, Clonetics, Corp.) were thawed into EGM2 culture medium (Clonetics Corp) in T75 flasks. Fresh EGM2 medium was added to the flasks 24 hours later. Four or five days later, cells were exposed to another culture medium (F12K medium supplemented with 10% fetal bovine serum (FBS), […] endothelial cell growth supplement (ECGS), and 0.1 mg/mL heparin). Exponentially-growing HUVEC cells were used in experiments thereafter. Ten to twelve thousand HUVEC cells were plated in 96-well dishes in […] of rich, culture medium (described above). The cells were allowed to attach for 24 hours in this medium. The medium was then removed by aspiration and […] of starvation media (F12K+1% FBS) was added to each well. After 24 hours, […] of test agent dissolved in 1% DMSO in starvation medium or this vehicle alone was added into each treatment well; the final DMSO concentration was 0.1%. One hour later, […] of VEGF (30 ng/mL) in starvation media was added to all wells except those containing untreated controls; the final VEGF concentration was 6 ng/mL. Cellular proliferation was quantified 72 hours later by MTT dye reduction, at which time cells were exposed for 4 hours MTT (Promega Corp.). Dye reduction was stopped by addition of a stop solution (Promega Corp.) and absorbance at 595 nm was determined on a 96-well spectrophotometer plate reader.

Usually Ki stands for the dissociation constant of the complex between target and ligand, obtained from inhibition or displacement. For orientation: IC50 means the point on the concentration scale where inhibition reaches its midpoint.

T1 sequence (P35968 with tags, fused parts or gaps DEL940-989/E990V limits assumed): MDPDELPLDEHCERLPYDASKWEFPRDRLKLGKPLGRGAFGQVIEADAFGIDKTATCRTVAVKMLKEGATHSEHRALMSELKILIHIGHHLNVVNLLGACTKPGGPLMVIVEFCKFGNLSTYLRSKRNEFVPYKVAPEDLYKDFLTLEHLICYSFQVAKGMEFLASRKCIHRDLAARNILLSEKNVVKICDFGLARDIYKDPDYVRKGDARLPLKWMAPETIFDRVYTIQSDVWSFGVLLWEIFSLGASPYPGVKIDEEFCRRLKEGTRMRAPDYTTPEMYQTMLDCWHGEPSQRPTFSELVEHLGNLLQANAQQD
T2 sequence (P11362 456-766 L457V/C488A/C584S): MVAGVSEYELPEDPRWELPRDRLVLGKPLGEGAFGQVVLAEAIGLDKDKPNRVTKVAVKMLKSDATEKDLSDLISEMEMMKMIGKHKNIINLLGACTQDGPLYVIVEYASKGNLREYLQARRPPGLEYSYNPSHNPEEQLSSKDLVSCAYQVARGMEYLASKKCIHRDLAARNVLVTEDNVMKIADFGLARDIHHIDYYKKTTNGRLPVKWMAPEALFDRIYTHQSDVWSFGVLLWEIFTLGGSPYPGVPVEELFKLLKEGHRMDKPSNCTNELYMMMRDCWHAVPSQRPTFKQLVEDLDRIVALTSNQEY

`O=C(Cc1ccc(Oc2ccnc3cc(C(=O)N4CCC4)sc23)cc1)Nc1ccc(Br)cn1` [Example 30, 2-{4-[2-(Azetidine-1-carbonyl)-thieno[3,2-b]pyridin-7-yloxy]-phenyl}-N-(5-bromo-pyridin-2-yl)-acetamide] gave a Ki in test [1] below 1 nM. Also, in test [2], the inhibition at 0.05 µM lay within 0 to 5%. In test [3], the IC50 is 1 to 10 nM.

Compound `O=C(Cc1ccc(Oc2ccnc3cc(C(=O)N4CCC4)sc23)cc1)Nc1cc2ccccc2cn1` [Example 31, 2-{4-[2-(Azetidine-1-carbonyl)-thieno[3,2-b]pyridin-7-yloxy]-phenyl}-N-isoquinolin-3-yl-acetamide] returned a Ki in test [1] below 1 nM. Besides, in test [2], the inhibition at 0.05 µM is 0 to 5%. The IC50 in test [3] is below 1 nM.

Take `O=C(Cc1ccc(Oc2ccnc3cc(C(=O)N4CCC4)sc23)cc1)Nc1nccc2ccccc12` [Example 32, 2-{4-[2-(Azetidine-1-carbonyl)-thieno[3,2-b]pyridin-7-yloxy]-phenyl}-N-isoquinolin-1-yl-acetamide]: the Ki in test [1] is 1 to 10 nM. Further, the inhibition at 0.05 µM in test [2] lay within 0 to 5%. For the same compound, the IC50 in test [3] is above 10 nM.

Consider `O=C(Cc1ccc(Oc2ccnc3cc(C(=O)N4CCC4)sc23)cc1)Nc1ccc2ccccc2n1` [Example 33, 2-{4-[2-(Azetidine-1-carbonyl)-thieno[3,2-b]pyridin-7-yloxy]-phenyl}-N-quinolin-2-yl-acetamide], for which the inhibitory constant (Ki) in test [1] is below 1 nM. The inhibition at 0.05 µM in test [2] fell in the range of 0 to 5%. Further, the 50% inhibitory concentration (IC50) in test [3] is above 10 nM.

Take `Cc1cc(NC(=O)Cc2ccc(Oc3ccnc4cc(C(=O)N5CCC5)sc34)cc2)no1` [Example 41, 2-{4-[2-(Azetidine-1-carbonyl)-thieno[3,2-b]pyridin-7-yloxy]-phenyl}-N-(5-methyl-isoxazol-3-yl)-acetamide]: the Ki in test [1] fell in the range of 1 to 10 nM. Further, in test [2], the inhibition at 0.05 µM was in the range of 5 to 10%. Besides, the IC50 in test [3] was in the range of 1 to 10 nM.

`Cc1cc(C)nc(NC(=O)Cc2ccc(Oc3ccnc4cc(C(=O)N5CCC5)sc34)cc2Cl)c1` [Example 49, 2-{4-[2-(Azetidine-1-carbonyl)-thieno[3,2-b]pyridin-7-yloxy]-2-chloro-phenyl}-N-(4,6-dimethyl-pyridin-2-yl)-acetamide] had an inhibitory constant (Ki) in test [1] below 1 nM. Moreover, the inhibition at 0.05 µM in test [2] was above 10%. Also, the IC50 in test [3] is 1 to 10 nM.

Turning to `O=C(Cc1ccc(Oc2ccnc3cc(C(=O)N4CCC4)sc23)cc1Cl)Nc1ccc(Cl)cn1` [Example 50, 2-{4-[2-(Azetidine-1-carbonyl)-thieno[3,2-b]pyridin-7-yloxy]-2-chloro-phenyl}-N-(5-chloro-pyridin-2-yl)-acetamide], the inhibition constant (Ki) in test [1] was 1 to 10 nM. Besides, the inhibition at 0.05 µM in test [2] was above 10%. In addition, in test [3], the half-maximal inhibitory concentration (IC50) is above 10 nM.

Compound `O=C(Cc1ccc(Oc2ccnc3cc(C(=O)N4CCC4)sc23)cc1Cl)Nc1ccccn1` [Example 51, 2-{4-[2-(Azetidine-1-carbonyl)-thieno[3,2-b]pyridin-7-yloxy]-2-chloro-phenyl}-N-pyridin-2-yl-acetamide] showed a Ki in test [1] of 1 to 10 nM. Further, the inhibition at 0.05 µM in test [2] was 0 to 5%. For the same compound, in test [3], the concentration for half-maximal inhibition (IC50) was above 10 nM.

On to `Cc1cc(NC(=O)Cc2ccc(Oc3ccnc4cc(C(=O)N5CCC5)sc34)cc2Cl)no1` [Example 52, 2-{4-[2-(Azetidine-1-carbonyl)-thieno[3,2-b]pyridin-7-yloxy]-2-chloro-phenyl}-N-(5-methyl-isoxazol-3-yl)-acetamide], for which the Ki in test [1] lay in the range of 1 to 10 nM. For the same compound, the inhibition at 0.05 µM in test [2] is above 10%. The IC50 in test [3] is above 10 nM.

`Cc1cc(NC(=O)Cc2ccc(Oc3ccnc4cc(C(=O)N5CCC5)sc34)cc2Cl)on1` [Example 53, 2-{4-[2-(Azetidine-1-carbonyl)-thieno[3,2-b]pyridin-7-yloxy]-2-chloro-phenyl}-N-(3-methyl-isoxazol-5-yl)-acetamide]: in test [1], the Ki was below 1 nM. Further, in test [2], the inhibition at 0.05 µM fell in the range of 0 to 5%. In addition, in test [3], the IC50 was in the range of 1 to 10 nM.

Turning to `Cc1cc(NC(=O)Cc2ccc(Oc3ccnc4cc(C(=O)N5CCC5)sc34)cc2Cl)n[nH]1` [Example 55, 2-{4-[2-(Azetidine-1-carbonyl)-thieno[3,2-b]pyridin-7-yloxy]-2-chloro-phenyl}-N-(5-methyl-1H-pyrazol-3-yl)-acetamide], in test [1], the Ki is below 1 nM. Besides, in test [2], the inhibition at 0.05 µM lay within 0 to 5%. Besides, the IC50 in test [3] is below 1 nM.

For `Cn1ccnc1-c1cc2nccc(Oc3ccc(CC(=O)Nc4ccccn4)c(Cl)c3)c2s1` [Example 60, 2-{2-Chloro-4-[2-(1-methyl-1H-imidazol-2-yl)-thieno[3,2-b]pyridin-7-yloxy]-phenyl}-N-pyridin-2-yl-acetamide], the Ki in test [1] was in the range of 1 to 10 nM. For the same compound, the inhibition at 0.05 µM in test [2] lay within 0 to 5%. Moreover, the IC50 in test [3] is above 10 nM.

As for `O=C(Cc1ccc(Oc2ccnc3cc(C(=O)N4CC[C@@H](O)C4)sc23)cc1Cl)Nc1ccccn1` [Example 61, 2-{2-Chloro-4-[2-((R)-3-hydroxy-pyrrolidine-1-carbonyl)-thieno[3,2-b]pyridin-7-yloxy]-phenyl}-N-pyridin-2-yl-acetamide], the Ki in test [1] fell in the range of 1 to 10 nM. Further, the inhibition at 0.05 µM in test [2] lay in the range of 0 to 5%. In addition, the IC50 in test [3] is above 10 nM.

`CO[C@@H]1CCN(C(=O)c2cc3nccc(Oc4ccc(CC(=O)Nc5ccccn5)c(Cl)c4)c3s2)C1` [Example 62, 2-{2-Chloro-4-[2-((R)-3-methoxy-pyrrolidine-1-carbonyl)-thieno[3,2-b]pyridin-7-yloxy]-phenyl}-N-pyridin-2-yl-acetamide] had an inhibition constant Ki in test [1] of 1 to 10 nM. The inhibition at 0.05 µM in test [2] fell in the range of 0 to 5%. The half-maximal inhibitory concentration (IC50) in test [3] was above 10 nM.

As for `C=C(C(=O)NC)c1ccc(Oc2ccnc3cc(C(=O)N4CC[C@@H](O)C4)sc23)cc1` [Example 66, 2-{4-[2-((R)-3-Hydroxy-pyrrolidine-1-carbonyl)-thieno[3,2-b]pyridin-7-yloxy]-phenyl}-N-methyl-acrylamide], in test [1], the inhibition constant Ki was above 10 nM. For the same compound, in test [2], the inhibition at 0.05 µM is 0 to 5%. Also, in test [3], the half-maximal inhibitory concentration (IC50) is above 10 nM.

For `CNC(=O)Cc1ccc(Oc2ccnc3cc(C(=O)N4CC[C@@H](O)C4)sc23)cc1` [Example 69, 2-{4-[2-((R)-3-Hydroxy-pyrrolidine-1-carbonyl)-thieno[3,2-b]pyridin-7-yloxy]-phenyl}-N-methyl-acetamide], in test [1], the Ki is above 10 nM. In addition, the inhibition at 0.05 µM in test [2] was 0 to 5%. Moreover, the concentration for half-maximal inhibition (IC50) in test [3] is above 10 nM.

In test [1], `CNC(=O)C(O)c1ccc(Oc2ccnc3cc(C(=O)N4CCC4)sc23)cc1` (stereo not drawn) [Example 74, 2-{4-[2-(Azetidine-1-carbonyl)-thieno[3,2-b]pyridin-7-yloxy]-phenyl}-2-hydroxy-N-methyl-acetamide] displayed a Ki of 1 to 10 nM. Besides, the inhibition at 0.05 µM in test [2] is 0 to 5%. In addition, in test [3], the IC50 is above 10 nM.

Turning to `CNC(=O)C(O)c1ccc(Oc2ccnc3cc(C(=O)N4CC[C@@H](O)C4)sc23)cc1` (stereo partly drawn) [Example 76, 2-Hydroxy-2-{4-[2-((R)-3-hydroxy-pyrrolidine-1-carbonyl)-thieno[3,2-b]pyridin-7-yloxy]-phenyl}-N-methyl-acetamide], in test [1], the inhibition constant (Ki) fell in the range of 1 to 10 nM. Further, in test [2], the inhibition at 0.05 µM lay within 0 to 5%. For the same compound, the 50% inhibitory concentration (IC50) in test [3] was above 10 nM.

`CCCCNC(=O)Oc1ccc(Oc2ccnc3cc(C(=O)N4CCC4)sc23)cc1` [Example 86, butyl-carbamic acid 4-[2-(azetidine-1-carbonyl)-thieno[3,2-b]pyridin-7-yloxy]-phenyl ester] displayed a Ki in test [1] of 1 to 10 nM. In test [2], the inhibition at 0.05 µM was in the range of 0 to 5%. For the same compound, in test [3], the 50% inhibitory concentration (IC50) is below 1 nM.

In test [1], `COc1ccc2c(Oc3ccc(CC(=O)Nc4ccc(Cl)cn4)cc3)ccnc2c1` [Example 87, N-(5-Chloro-pyridin-2-yl)-2-[4-(7-methoxy-quinolin-4-yloxy)-phenyl]-acetamide] displayed a Ki of 1 to 10 nM. Besides, in test [2], the inhibition at 0.05 µM was 0 to 5%. Further, the half-inhibitory concentration (IC50) in test [3] was above 10 nM.
